Source: patent US20240366589A1, “NHE3-BINDING COMPOUNDS AND METHODS FOR INHIBITING PHOSPHATE TRANSPORT” (Ardelyx, Inc., priority 2013, published 2024)
Values joined by “and” are separate entries in the source; they are usually repeats but may differ in a detail not shown here. Equal values may be shown once.

Columns and labels:
Rat NHE3 = biological target: T1, Rat NHE3 (Rattus norvegicus, UniProt P26433); experiment: Cell-based NHE3 activity under prompt conditions (OK cells, BCECF pH recovery), rat NHE3; details: prompt conditions
T1 construct: expressed in transfected cells; host or cells: Opossum kidney (OK) cells (ATCC), electroporation
Procedure, shortened: (§1)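 Read-out: initial rate of BCECF-reported intracellular pH recovery via Na+/H+ antiport, fitted to pIC50. Opossum kidney cells transfected with rat or human NHE3; NH4Cl prepulse with 5 μM BCECF-AM, 30 min RT; Na+-free choline buffer 10 min.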

[1] = tested on: absorption of sodium from the intestinal lumen; experiment: Fecal form score (FFS) 16 h after oral dose in rats; type: in vivo, rat; details: oral gavage, 16 h post-dose, scale 1-5
Procedure, shortened: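 Fecal form was scored at 16 h post-dose on a 1–5 wetness scale (normal pellet to liquid stream), with two independent observations averaged across six rats per group. Animals were 8-week-old Sprague-Dawley rats given test compound or water orally in the late afternoon and kept in metabolic cages.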

Human NHE3 = biological target: T2, Human NHE3 (Homo sapiens, UniProt P48764); experiment: Cell-based NHE3 activity under prompt conditions (OK cells, BCECF pH recovery), human NHE3; details: prompt conditions
T2 construct: expressed in transfected cells; host or cells: Opossum kidney (OK) cells (ATCC), electroporation
T2 sequence (P48764 26-834): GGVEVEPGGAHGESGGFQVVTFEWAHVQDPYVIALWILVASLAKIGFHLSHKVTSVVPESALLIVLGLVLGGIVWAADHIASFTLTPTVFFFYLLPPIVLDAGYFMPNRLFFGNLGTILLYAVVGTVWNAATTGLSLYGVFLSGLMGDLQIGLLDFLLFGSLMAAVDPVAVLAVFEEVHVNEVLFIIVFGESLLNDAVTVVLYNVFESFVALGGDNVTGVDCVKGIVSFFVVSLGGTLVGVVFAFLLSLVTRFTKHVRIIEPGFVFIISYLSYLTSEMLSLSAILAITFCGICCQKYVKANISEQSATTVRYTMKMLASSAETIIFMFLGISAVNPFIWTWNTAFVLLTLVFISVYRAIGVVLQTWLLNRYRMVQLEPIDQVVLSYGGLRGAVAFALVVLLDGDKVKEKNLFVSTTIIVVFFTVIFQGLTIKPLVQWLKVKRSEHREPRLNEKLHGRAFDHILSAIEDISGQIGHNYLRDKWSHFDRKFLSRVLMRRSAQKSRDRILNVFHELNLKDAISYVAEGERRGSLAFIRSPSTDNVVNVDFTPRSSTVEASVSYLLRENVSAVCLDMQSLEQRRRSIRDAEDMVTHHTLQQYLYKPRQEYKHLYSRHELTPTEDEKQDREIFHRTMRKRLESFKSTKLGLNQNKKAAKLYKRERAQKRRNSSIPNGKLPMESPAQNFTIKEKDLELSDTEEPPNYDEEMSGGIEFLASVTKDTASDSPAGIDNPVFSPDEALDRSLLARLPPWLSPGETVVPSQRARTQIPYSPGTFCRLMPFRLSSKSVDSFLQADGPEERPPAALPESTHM
Procedure, shortened: as §1

[2] = tested on: phosphorus and calcium levels in the urine of rats; experiment: Urinary excretion of phosphate and calcium in rats (16 h overnight urine); type: in vivo, rat; details: rats, oral gavage, 16 h post-dose
[3] = tested on: absorption of sodium from the intestinal lumen; experiment: Inhibition of intestinal sodium absorption: urinary sodium (uNa) 16 h after single oral dose in rats; type: in vivo, rat; details: oral gavage, 16 h post-dose
Procedure, shortened: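 Urinary sodium mass over the 16 h after one oral gavage dose, measured by cation-exchange ion chromatography, reported as percent of water-vehicle group; ANOVA plus Dunnett's post hoc test. Groups of six 8-week-old Sprague-Dawley rats, housed individually in metabolic cages post-dose, fed and watered freely.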

T1 sequence (P26433 29-831): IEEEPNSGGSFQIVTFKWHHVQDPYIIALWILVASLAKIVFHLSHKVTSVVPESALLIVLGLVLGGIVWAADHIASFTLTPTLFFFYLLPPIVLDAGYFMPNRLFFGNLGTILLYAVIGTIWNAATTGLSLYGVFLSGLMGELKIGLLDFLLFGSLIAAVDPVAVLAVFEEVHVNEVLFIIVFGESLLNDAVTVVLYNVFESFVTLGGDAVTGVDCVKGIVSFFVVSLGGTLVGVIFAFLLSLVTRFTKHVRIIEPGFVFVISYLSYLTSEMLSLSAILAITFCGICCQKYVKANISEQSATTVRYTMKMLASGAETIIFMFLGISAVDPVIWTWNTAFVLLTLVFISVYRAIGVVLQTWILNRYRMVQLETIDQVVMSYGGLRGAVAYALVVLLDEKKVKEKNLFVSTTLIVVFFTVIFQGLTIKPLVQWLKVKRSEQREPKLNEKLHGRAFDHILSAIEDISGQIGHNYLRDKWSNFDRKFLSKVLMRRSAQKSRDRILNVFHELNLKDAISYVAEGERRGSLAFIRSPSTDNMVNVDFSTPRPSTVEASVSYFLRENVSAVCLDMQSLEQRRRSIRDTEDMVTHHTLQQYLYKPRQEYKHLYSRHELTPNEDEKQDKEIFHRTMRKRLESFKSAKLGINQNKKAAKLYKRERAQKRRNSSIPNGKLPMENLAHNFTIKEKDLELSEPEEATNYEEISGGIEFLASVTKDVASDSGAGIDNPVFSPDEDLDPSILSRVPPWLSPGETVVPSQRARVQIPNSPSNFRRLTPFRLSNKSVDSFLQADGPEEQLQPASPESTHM

Compound | Prompt Rat NHE3 pIC50 (Rat NHE3) | Prompt Human NHE3 pIC50 (Human NHE3) | Fecal Form Score average ([1]; dose 10 mg/kg) | Urine P % of control ([2]; dose 10 mg/kg) [%] | Urine Na % of control ([3]; dose 10 mg/kg) [%] | also measured
CN1Cc2c(Cl)cc(Cl)cc2[C@H](c2cccc(S(=O)(=O)NCCOCCOCCNC(=O)CCC(CCCNC(=O)NCCOCCOCCNS(=O)(=O)c3cccc([C@@H]4CN(C)Cc5c(Cl)cc(Cl)cc54)c3)(CCC(=O)NCCOCCOCCNS(=O)(=O)c3cccc([C@@H]4CN(C)Cc5c(Cl)cc(Cl)cc54)c3)NC(=O)NCP(=O)(O)O)c2)C1 [compound 162] | 7.30 | 6.60 |  |  |  | Fecal Form Score average ([1]; dose 2 mg/kg): 2; Urine P % of control ([2]; dose 2 mg/kg): 50%; Urine Na % of control ([3]; dose 2 mg/kg): 130%
CN(C)[C@H]1Cc2ccccc2[C@@H]1Oc1ccc(S(=O)(=O)NCCOCCOCCNC(=O)NCCCCNC(=O)NCCOCCOCCNS(=O)(=O)c2ccc(O[C@H]3c4ccccc4C[C@@H]3N(C)C)cc2)cc1 [compound 115] | <5.00 | 8.55 | 1 | 60 | 69 | 
CN1Cc2c(Cl)cc(Cl)cc2[C@H](c2cccc(S(=O)(=O)NCCOCCOCCOCCNC(=O)c3cc(C(=O)NCCOCCOCCOCCNS(=O)(=O)c4cccc([C@@H]5CN(C)Cc6c(Cl)cc(Cl)cc65)c4)cc(C(=O)NCCOCCOCCOCCNS(=O)(=O)c4cccc([C@@H]5CN(C)Cc6c(Cl)cc(Cl)cc65)c4)c3)c2)C1 [compound 56] | 6.90 | 7.00 | 2 | 50 | 15 | 
CN(CC(=O)NCCOCCOCCNC(=O)NCCOCCOCCOCCOc1ccc(-c2nc(NC(=N)N)nc3ccc(Cl)cc23)cc1)CC(=O)NCCOCCOCCNC(=O)NCCOCCOCCOCCOc1ccc(-c2nc(NC(=N)N)nc3ccc(Cl)cc23)cc1 [compound 34] | 7.90 | 8.20 | 1 | 72 | 76 | 
CN1Cc2c(Cl)cc(Cl)cc2[C@H](c2cccc(S(=O)(=O)NCCOCCOCCNC(=O)NCCCN(CCCNC(=O)NCCOCCOCCNS(=O)(=O)c3cccc([C@@H]4CN(C)Cc5c(Cl)cc(Cl)cc54)c3)CCCNC(=O)NCCOCCOCCNS(=O)(=O)c3cccc([C@@H]4CN(C)Cc5c(Cl)cc(Cl)cc54)c3)c2)C1 [compound 77] | 6.25 | 7.35 | 4 | 41 | 17 | Fecal Form Score average ([1]; dose 1 mg/kg): 2; Fecal Form Score average ([1]; dose 3 mg/kg): 2; Urine P % of control ([2]; dose 1 mg/kg): 82%; Urine P % of control ([2]; dose 3 mg/kg): 79%; Urine Na % of control ([3]; dose 1 mg/kg): 80%; Urine Na % of control ([3]; dose 3 mg/kg): 36%
O=C(CCOCCOCCOCCOCCOCCC(=O)NCCOCCOCCNS(=O)(=O)c1ccc(OC2c3ccccc3CC2N2CCCCC2)cc1)NCCOCCOCCNS(=O)(=O)c1ccc(OC2c3ccccc3CC2N2CCCCC2)cc1 (racemic) [compound 54] | 7.30 | 7.50 | 1 | 72 | 75 | 
N=C(N)Nc1nc(-c2ccc(OCCOCCOCCOCCNC(=O)NCCOCCOCCNC(=O)CN(CCN(CC(=O)O)CC(=O)NCCOCCOCCNC(=O)NCCOCCOCCOCCOc3ccc(-c4nc(NC(=N)N)nc5ccc(Cl)cc45)cc3)CC(=O)O)cc2)c2cc(Cl)ccc2n1 [compound 35] | 8.00 | 8.30 | 1 | 57 | 65 | 
NCCOCCOCCOCCN1CCN(c2ccc(-c3nc(N=C(N)N)nc4ccc(Cl)cc34)cc2)CC1 [compound 18] | 7.25 and 6.90 | 7.35 and 6.90 | 1 | 142 | 74 | Fecal Form Score average ([1]; dose 30 mg/kg): 1; Urine P % of control ([2]; dose 30 mg/kg): 109%; Urine Na % of control ([3]; dose 30 mg/kg): 41%
CN1Cc2c(Cl)cc(Cl)cc2C(c2cccc(S(=O)(=O)NCCOCCOCCOCCNC(=O)CCC(CCC(=O)NCCOCCOCCOCCNS(=O)(=O)c3cccc([C@@H]4CN(C)Cc5c(Cl)cc(Cl)cc54)c3)(CCC(=O)NCCOCCOCCOCCNS(=O)(=O)c3cccc([C@@H]4CN(C)Cc5c(Cl)cc(Cl)cc54)c3)NCc3ccc(-c4ccc(Cl)cc4)cc3)c2)C1 (stereo in doubt) [compound 114] | <5.00 | <5.00 | 3 | 100 | 45 | 
CN1Cc2c(Cl)cc(Cl)cc2[C@H](c2cccc(S(=O)(=O)NCCOCCOCCNCCCC(CCC(=O)NCCOCCOCCNS(=O)(=O)c3cccc([C@@H]4CN(C)Cc5c(Cl)cc(Cl)cc54)c3)(CCC(=O)NCCOCCOCCNS(=O)(=O)c3cccc([C@@H]4CN(C)Cc5c(Cl)cc(Cl)cc54)c3)NC(=O)N3CCN(CCOCCO)CC3)c2)C1 [compound 170] |  | 7.20 |  |  |  | IC50 (Rat NHE3; read-out: Prompt Rat NHE3 pIC50 (converted)): 79.4 nM; Fecal Form Score average ([1]; dose 3 mg/kg): 2; Urine P % of control ([2]; dose 3 mg/kg): 34%; Urine Na % of control ([3]; dose 3 mg/kg): 31%
CC(C)(C(=O)NCCOCCOCCOCCNS(=O)(=O)c1ccc(O[C@H]2c3ccccc3C[C@@H]2N2CCCCC2)cc1)C(=O)NCCOCCOCCOCCNS(=O)(=O)c1ccc(O[C@H]2c3ccccc3C[C@@H]2N2CCCCC2)cc1 [compound 119] | 8.70 | 7.80 | 1 | 52 | 43 | 
CN1Cc2c(Cl)cc(Cl)cc2[C@H](c2cccc(S(=O)(=O)NCCOCCOCCNC(=O)CCC(=O)NCCOCCOCCNS(=O)(=O)c3ccc(O[C@H]4c5ccccc5C[C@@H]4N4CCCCC4)cc3)c2)C1 [compound 96] | 7.50 | 8.30 | 1 | 94 | 33 | 
CN1Cc2c(Cl)cc(Cl)cc2[C@H](c2cccc(S(=O)(=O)NCCOCCOCCNC(=O)CC(O)(CC(=O)NCCOCCOCCNS(=O)(=O)c3cccc([C@@H]4CN(C)Cc5c(Cl)cc(Cl)cc54)c3)C(=O)NCCOCCOCCNS(=O)(=O)c3cccc([C@@H]4CN(C)Cc5c(Cl)cc(Cl)cc54)c3)c2)C1 [compound 78] | 6.00 | 6.50 | 2 | 39 | 53 | 
